Assay [1] has as its target D(3) dopamine receptor (Homo sapiens, UniProt P35462). Nature of the assay: Binding affinity towards human dopamine D3 receptor by [3H]spiperone displacement.
In assay [2] the target is T1, D(2) dopamine receptor (Homo sapiens, UniProt P14416). As to the kind of experiment: Binding affinity towards human Dopamine receptor D2 (long) by [3H]-spiperone displacement.
The target of assay [3] is T1, D(2) dopamine receptor. As to the kind of experiment: Binding affinity towards human Dopamine receptor D2 (short) by [3H]-spiperone displacement.
Assay [4] has as its target T2, D(4) dopamine receptor (Homo sapiens, UniProt P21917).
T2 sequence (P21917 whole entry): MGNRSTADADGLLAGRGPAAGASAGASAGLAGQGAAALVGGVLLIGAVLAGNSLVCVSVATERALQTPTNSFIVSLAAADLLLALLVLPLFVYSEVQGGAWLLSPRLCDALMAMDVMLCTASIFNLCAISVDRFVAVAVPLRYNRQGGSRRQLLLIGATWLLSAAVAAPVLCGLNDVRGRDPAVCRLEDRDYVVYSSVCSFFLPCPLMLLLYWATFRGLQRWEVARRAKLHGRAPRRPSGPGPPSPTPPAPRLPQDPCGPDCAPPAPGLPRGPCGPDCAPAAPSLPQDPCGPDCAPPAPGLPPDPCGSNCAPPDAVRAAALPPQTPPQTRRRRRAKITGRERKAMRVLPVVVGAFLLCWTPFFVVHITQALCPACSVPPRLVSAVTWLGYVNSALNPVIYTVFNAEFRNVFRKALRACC
As to the kind of experiment: Binding affinity towards human Dopamine receptor D4 by [3H]spiperone displacement.

Assay [5] addresses D(1A) dopamine receptor (Bos taurus, UniProt Q95136). As to the kind of experiment: Binding affinity towards bovine dopamine D1 receptor by [3H]-SCH- 23390 displacement.

The structures appear in SMILES notation.

Consider 19 molecules from ChEMBL document CHEMBL1132075, “Enantio- and diastereocontrolled dopamine D1, D2, D3 and D4 receptor binding of N-(3-pyrrolidinylmethyl)benzamides synthesized from aspartic acid” (Bioorg Med Chem Lett, 1999).

T1 sequence (P14416 whole entry): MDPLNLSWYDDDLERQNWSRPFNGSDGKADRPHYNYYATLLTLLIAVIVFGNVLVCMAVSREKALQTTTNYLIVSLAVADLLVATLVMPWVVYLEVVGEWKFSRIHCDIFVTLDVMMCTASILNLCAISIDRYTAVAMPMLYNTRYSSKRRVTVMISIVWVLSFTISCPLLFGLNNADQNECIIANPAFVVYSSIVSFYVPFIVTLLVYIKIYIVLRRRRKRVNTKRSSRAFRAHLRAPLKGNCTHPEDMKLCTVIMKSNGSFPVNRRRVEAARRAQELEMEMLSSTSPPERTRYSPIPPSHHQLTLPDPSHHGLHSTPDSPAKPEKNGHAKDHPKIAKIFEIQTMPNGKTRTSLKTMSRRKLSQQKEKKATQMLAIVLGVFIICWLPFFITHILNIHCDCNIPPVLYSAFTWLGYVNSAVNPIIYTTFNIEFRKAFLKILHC
D(1A) dopamine receptor, sequence (Q95136 whole entry): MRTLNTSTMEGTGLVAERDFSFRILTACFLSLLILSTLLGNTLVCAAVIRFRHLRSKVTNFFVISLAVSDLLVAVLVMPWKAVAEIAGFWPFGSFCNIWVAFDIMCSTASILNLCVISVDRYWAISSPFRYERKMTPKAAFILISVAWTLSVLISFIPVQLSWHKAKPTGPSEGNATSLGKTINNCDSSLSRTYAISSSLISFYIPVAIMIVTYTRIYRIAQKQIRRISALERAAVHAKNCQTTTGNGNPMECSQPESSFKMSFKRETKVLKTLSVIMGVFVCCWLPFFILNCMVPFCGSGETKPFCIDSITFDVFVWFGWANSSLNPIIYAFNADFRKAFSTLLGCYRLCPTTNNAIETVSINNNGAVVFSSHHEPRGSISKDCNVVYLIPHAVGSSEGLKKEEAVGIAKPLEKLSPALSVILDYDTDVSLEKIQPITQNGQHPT
D(3) dopamine receptor, sequence (P35462 whole entry): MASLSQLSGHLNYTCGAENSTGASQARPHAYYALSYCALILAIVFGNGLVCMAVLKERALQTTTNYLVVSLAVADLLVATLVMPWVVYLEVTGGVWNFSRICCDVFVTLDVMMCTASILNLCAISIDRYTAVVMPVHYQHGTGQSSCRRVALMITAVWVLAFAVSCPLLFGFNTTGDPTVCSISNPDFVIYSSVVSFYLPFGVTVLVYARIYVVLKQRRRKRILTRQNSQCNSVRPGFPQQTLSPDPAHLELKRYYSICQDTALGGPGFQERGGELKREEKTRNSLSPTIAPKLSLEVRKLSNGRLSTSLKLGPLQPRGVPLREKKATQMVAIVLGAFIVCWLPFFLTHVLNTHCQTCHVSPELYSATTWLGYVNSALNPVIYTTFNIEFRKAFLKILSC

Take `CNc1cc(OC)c(C(=O)NC[C@H]2CCN(Cc3ccccc3)C2)cc1Cl`: the Ki was determined as 360 nM in assay [1]; 110 nM in assay [2]; 86 nM in assay [3]; 23 nM in assay [4]; 9700 nM in assay [5].

As for `COc1cc(NC(C)=O)c(Cl)cc1C(=O)NC[C@H]1CCN(Cc2ccccc2)C1`, the Ki was found to be 8700 nM in assay [1]; 27000 nM in assay [2]; 25000 nM in assay [3]; 340 nM in assay [4]; 41000 nM in assay [5].

Take `COc1cc(N)c(Cl)cc1C(=O)NC[C@@H]1CCN(Cc2ccccc2)C1`: the inhibitory constant (Ki) was determined as 570 nM in assay [1]; 1400 nM in assay [2]; 640 nM in assay [3]; 180 nM in assay [4]; 11000 nM in assay [5].

Consider `CCC[C@H]1CN(Cc2ccccc2)C[C@@H]1CNC(=O)c1cc(Cl)c(NC)cc1OC`, for which the inhibition constant Ki stood at 350 nM in assay [1]; 980 nM in assay [2]; 540 nM in assay [3]; 990 nM in assay [4]; 4100 nM in assay [5].

With `COc1cc(N(C)C(C)=O)c(Cl)cc1C(=O)NC[C@@H]1CCN(Cc2ccccc2)C1`, the Ki was 7200 nM in assay [1]; 30000 nM in assay [2]; 19000 nM in assay [3]; 4200 nM in assay [4]; 75000 nM in assay [5].

As for `CCC[C@@H]1CN(Cc2ccccc2)C[C@H]1CNC(=O)c1cc(Cl)c(NC)cc1OC`, the inhibitory constant (Ki) in assay [1] came to 270 nM; in assay [2], 54 nM; in assay [3] it was 24 nM; in assay [4], 130 nM; in assay [5], 3300 nM.

On to `COc1cc(N)c(Cl)cc1C(=O)NC[C@H]1CCN(Cc2ccccc2)C1`, for which the Ki worked out at 2200 nM in assay [1]; 820 nM in assay [2]; 540 nM in assay [3]; 140 nM in assay [4]; 11000 nM in assay [5].

As to `CCC[C@H]1CN(Cc2ccccc2)C[C@H]1CNC(=O)c1cc(Cl)c(NC)cc1OC`, the inhibitory constant (Ki) stood at 310 nM in assay [1]; 45 nM in assay [2]; 28 nM in assay [3]; 46 nM in assay [4]; 240 nM in assay [5].

Turning to `CNc1cc(OC)c(C(=O)NC[C@H]2CN(Cc3ccccc3)C[C@H]2C)cc1Cl`, the Ki was found to be 110 nM in assay [1]; 150 nM in assay [2]; 79 nM in assay [3]; 47 nM in assay [4]; 11000 nM in assay [5].

Take `CNc1cc(OC)c(C(=O)NC[C@@H]2CCN(Cc3ccccc3)C2)cc1Cl`: the inhibition constant (Ki) in assay [1] was 47 nM; in assay [2], 110 nM; in assay [3], 58 nM; in assay [4], 19 nM; in assay [5], 5100 nM.

`COc1cc(N(C)C(C)=O)c(Cl)cc1C(=O)NC[C@H]1CCN(Cc2ccccc2)C1`: the Ki was determined as 11000 nM in assay [1]; 38000 nM in assay [2]; 28000 nM in assay [3]; 7000 nM in assay [4]; 87000 nM in assay [5].

Turning to `COc1cc(NC(C)=O)c(Cl)cc1C(=O)NC[C@@H]1CCN(Cc2ccccc2)C1`, the Ki in assay [1] was found to be 2700 nM; in assay [2], 19000 nM; in assay [3], 21000 nM; in assay [4], 250 nM; in assay [5], 35000 nM.

Consider `COc1ccc(Br)cc1C(=O)NC[C@@H]1CCN(Cc2ccccc2)C1`, for which the inhibition constant Ki was 1100 nM in assay [1]; 3100 nM in assay [2]; 1600 nM in assay [3]; 48 nM in assay [4]; 3700 nM in assay [5].

As for `CNc1cc(OC)c(C(=O)NC[C@@H]2CN(Cc3ccccc3)C[C@H]2C)cc1Cl`, the inhibitory constant (Ki) in assay [1] was determined as 210 nM; in assay [2] it was 28 nM; in assay [3] it was 10 nM; in assay [4], 220 nM; in assay [5], 14000 nM.

Regarding `CNc1cc(OC)c(C(=O)NC[C@@H]2CN(Cc3ccccc3)C[C@@H]2C)cc1Cl`, the Ki in assay [1] was determined as 570 nM; in assay [2] it was 51 nM; in assay [3], 21 nM; in assay [4], 240 nM; in assay [5], 12000 nM.

`CNc1cc(OC)c(C(=O)NC[C@H]2CN(Cc3ccccc3)C[C@@H]2C)cc1Cl`: the inhibition constant Ki in assay [1] was 320 nM; in assay [2] it was 330 nM; in assay [3], 120 nM; in assay [4], 150 nM; in assay [5], 20000 nM.

For `COc1ccc(Br)cc1C(=O)NC[C@H]1CCN(Cc2ccccc2)C1`, the Ki in assay [1] turned out to be 2100 nM; in assay [2] it was 2000 nM; in assay [3] it was 1500 nM; in assay [4], 46 nM; in assay [5] it was 5200 nM.

Take `CCC[C@@H]1CN(Cc2ccccc2)C[C@@H]1CNC(=O)c1cc(Cl)c(NC)cc1OC`: the Ki turned out to be 31 nM in assay [1]; 190 nM in assay [2]; 190 nM in assay [3]; 200 nM in assay [4]; 2800 nM in assay [5].

On to `CCN1CCC[C@H]1CNC(=O)c1cc(S(N)(=O)=O)ccc1OC` [LEVOSULPIRIDE], for which affinity in assay [5] was put at a Ki of 50000 nM.
